Source: US20100227841A1, “Patient populations and treatment methods” (Harbor BioSciencs, Inc., priority 2008, published 2010)

Test system: Zucker Diabetic Fatty (ZDF) rats
Test: Zucker Diabetic Fatty (ZDF) rat study (glucose, clamp, adipose histology, lipid profiles)
Assay type: in vivo
Description: The study was staggered into 6 cohorts conducted on different days. Forty-two male Zucker Diabetic Fatty (ZDF) rats and six Zucker Fatty rats at 7-week of age were obtained from Charles River laboratories (Wilmington, Mass.). The rats were housed individually in polycarbonate cages in a temperature-controlled room on a 12 h: 12 h light: dark cycle with the lights on at 0600 h. Rats were fed ad libitum except during the experiments. After one week of acclimation to environmental conditions, the ZDF rats began daily oral treatment for 32 to 35 days with vehicle (n=18), 100 mg/kg/day 17α-ethynylandrost-5-ene-3β,7β,17β-triol (n=15), or 10 mg/kg/day rosiglitazone (n=9).
Glucose levels were measured using a One-Touch glucometer (Lifescan). Extra serum samples were collected for free fatty acid (FFA), free glycerol, pyruvate, and lactate measurements. Glucose, insulin and pyruvate tolerance tests were performed on 6 hr fasted rats. For GTT, animals were orally gavaged with glucose (1 g/kg), whereas for ITT, 0.35 units/kg insulin (Novolin R, Novo-Nordisk) was injected intraperitoneally. Blood samples were taken at basal and 15, 30, 60, 90 and 120 min after injection. For the pyruvate tolerance test (PTT), 1 g/kg of pyruvate was used.
Dual jugular venous cannulae and one carotid arterial cannula were implanted in rats. The rats were allowed to recover for 4 to 5 days before clamp procedure. The hyperinsulinemic euglycemic clamp experiments began with a priming injection (7.5 μCi/0.2 ml) and constant infusion (0.25 μCi/min) of D-[3-^3H] glucose (Du Pont-NEN, Boston, Mass.). After 60 min of tracer equilibration and basal sampling at t=−10 and 0 min, glucose (50% dextrose, variable infusion; Abbott) and tracer (0.25 μCi/min) plus insulin ([…]) were infused into the jugular vein. Small blood samples were drawn at 10-min intervals and immediately analyzed for glucose to maintain the integrity of the glucose clamp throughout the duration of the experiment. Blood samples were taken at t=−60 (start of experiment), −10, 0 (basal), 110, and 120 (end of experiment) min to determine glucose-specific activity and insulin, and free fatty acid (FFA). To ensure accuracy, basal and terminal sampling was performed twice at 10-min intervals. The achievement of steady-state conditions (100 mg/dl±5 mg/dl) was confirmed at the end of the clamp by measuring blood glucose every 10 min and ensuring that steady state for glucose infusion and plasma glucose levels were maintained for a minimum of 20 min. All blood samples were immediately centrifuged, and plasma was stored at −80° C. for subsequent analysis.
Following a 3-day recovery after clamp, rats were fasted 6 hours and euthanized. Tissues were harvested at basal state or acute insulin-stimulated state (5 U/kg). Insulin levels were analyzed by ELISA assay (Alpco Diagnostics). FFA levels were measured by enzymatic assay (Wako Diagnostics). Glycerol levels were measured using an assay kit from Sigma. Lactate and pyruvate assay kits were obtained from Biovision. TNFα and IL-1βwere measured by ELISA assays (Biosource).
Immunohistochemistry and quantification of crown-like structure (CLS) were done. These studies were conducted using paraffin-embedded adipose (epididymal) tissue sections from the rats incubated with MAC-2 antibody (Abcam) at a 1:100 dilution overnight at 4° C. Subsequently, biotinylated anti-rat secondary antibody (BD Bioscience) was used at 1:100 dilution, followed by 1:500 HRP-Streptavidin (Jackson ImmunoResearch) and development in substrate chromogen. Slides were counterstained with Mayer's and mounted with Vectashield mounting media with DAPI (Vector). Both bright field (MAC-2) and fluorescent photographs (DAPI) were taken of 3 representative fields per slide in a blinded fashion using a fluorescent microscope (10× objective).
Gene expression analyses used total RNA extracted from tissue with Purelink total RNA purification system (Invitrogen) following the manufacturer's protocol.

[1] = ZDF rats, 100 mg/kg/d, throughout the study, one week sufficient
[2] = euglycemic-hyperinsulinemic clamp, triol 100 mg/kg/d, rosiglitazone 10 mg/kg/d (more robust)

For `C#C[C@]1(O)CC[C@H]2[C@@H]3[C@@H](O)C=C4C[C@@H](O)CC[C@]4(C)[C@H]3CC[C@@]21C` [17α-ethynylandrost-5-ene-3β,7β,17β-triol], the “intracellular triacylglycerol (TAG) content in livers” value (ZDF rats) was “marked decrease”, the “decrease in serum cholesteryl esters” value (ZDF rats, 100 mg/kg/d) was 59% and the “decrease in serum total cholesterol levels” value (ZDF rats, 100 mg/kg/d) was 25%. For the same molecule, the “gross pathology of the kidneys due to diabetes” value (ZDF rats, 100 mg/kg/d) was “greatly ameliorated”, the “level of free cholesterol in epididymal white adipose tissue (WAT)” value (ZDF rats, 100 mg/kg/d) was “reduced” and the “other major lipid classes in WAT” value (ZDF rats, 100 mg/kg/d) was “not significantly altered”. For the same molecule, the “reduction of hepatic cholesteryl ester levels” value (ZDF rats, 100 mg/kg/d) was 73%, the “reduction of total cholesterol content in the liver” value (ZDF rats, 100 mg/kg/d) was 15% and the “serum free cholesterol levels” value (ZDF rats, 100 mg/kg/d) was “increase”. The plasma insulin levels (ZDF rats, 100 mg/kg/d, one week of treatment) was “normalize”, the fasting glucose levels [1] was “completely normalized” and the fed glucose levels [1] was “completely normalized”. The “adipose tissue macrophage (ATM) content, Mac-2 staining” value (ZDF rats, epididymal adipose tissue sections) was “marked reduction”, the “HMG CoA reductase expression” value (ZDF rats, gene expression) was “increased” and the “low density lipoprotein receptor (LDLR) expression” value (ZDF rats, gene expression) was “increased”. The “MCP-1 in adipose tissue” value (ZDF rats, p<0.05) was “decrease”, the “TNFα in adipose tissue” value (ZDF rats, p<0.05) was “decrease” and the “Basal rates of hepatic glucose production (HGP)” value (clamp, triol 100 mg/kg/d, rosiglitazone 10 mg/kg/d) was “equally reduced”. The glucose infusion rate [2] was “increase” and the insulin-stimulated glucose disposal [2] was “increase”.
